Where a name gives a salt, the structure may show the parent alone.
Legend:
[1] = target: αvβ1 (Homo sapiens, UniProt P05556+P06756); test: Solid Phase Integrin αvβ1 Assay; assay type: binding
Protocol: (§1) The compounds exemplified in this document were tested for their ability to inhibit αvβ1 and αvβ6 in below described solid phase integrin assays.
Solid Phase Integrin αvβ1 Assay
96-well microtiter plates (4 HBX Immulon; Thermo Fisher Scientific, Waltham, MA) were coated with 100 μL/well of 1 μg/mL recombinant TGFb1-LAP in TBS at 4° C., overnight. The coating solution was removed, and plates were blocked with 200 μL/well of blocking and binding buffer (2% BSA/TBST, 1 mM MnCl2) at room temperature for 1 hr. Blocking buffer was removed and 50 μL of binding buffer and testing compounds were added. 50 μL of diluted αvβ1 (0.2 ug/mL in binding buffer) was added to wells (100 μL/well total) for and plates incubated for 90 min at room temperature. Wells were washed thrice with washing buffer (TBS, 0.05% Tween, 1 mM MnCl2) and plates were incubated with 100 μL/well of a 1:12500 dilution of streptavidin-horseradish peroxidase conjugate (Thermo Fisher Scientific) in binding buffer for 20 min at room temperature. Bound protein was detected using the substrate TMB. The IC50 values for testing compounds were calculated by Levenberg-Marquardt four parameter fitting logistics.

[2] = target: αvβ6 (Homo sapiens, UniProt P06756+P18564); test: Solid Phase Integrin αvβ6 Assay; assay type: binding
Protocol: as §1
Solid Phase Integrin αvβ6 Assay
96-well microtiter plates (4 HBX Immulon; Thermo Fisher Scientific, Waltham, MA) were coated with 100 μL/well of 1 μg/mL recombinant TGFb1-LAP in TBS at 4° C., overnight. The coating solution was removed, and plates were blocked with 200 μL/well of blocking and binding buffer (2% BSA/TBST, 1 mM MnCl2) at room temperature for 1 hr. Blocking buffer was removed and 50 uL of binding buffer and testing compounds were added. 50 μL of diluted αvβ6 (0.2 μg/mL in binding buffer) was added to wells (100 uL/well total) and plates incubated for 1 hr at room temperature. Wells were washed thrice with washing buffer (TBS, 0.05% Tween, 1 mM MnCl2) and plates were incubated with 100 μL/well of a 1:12500) dilution of streptavidin-horseradish peroxidase conjugate (Thermo Fisher Scientific) in binding buffer for 20 min at room temperature. Bound protein was detected using the substrate TMB. The IC50 values for testing compounds were calculated by Levenberg-Marquardt four parameter fitting logistics.

Chain of αvβ6 (P06756 31-992 limits assumed): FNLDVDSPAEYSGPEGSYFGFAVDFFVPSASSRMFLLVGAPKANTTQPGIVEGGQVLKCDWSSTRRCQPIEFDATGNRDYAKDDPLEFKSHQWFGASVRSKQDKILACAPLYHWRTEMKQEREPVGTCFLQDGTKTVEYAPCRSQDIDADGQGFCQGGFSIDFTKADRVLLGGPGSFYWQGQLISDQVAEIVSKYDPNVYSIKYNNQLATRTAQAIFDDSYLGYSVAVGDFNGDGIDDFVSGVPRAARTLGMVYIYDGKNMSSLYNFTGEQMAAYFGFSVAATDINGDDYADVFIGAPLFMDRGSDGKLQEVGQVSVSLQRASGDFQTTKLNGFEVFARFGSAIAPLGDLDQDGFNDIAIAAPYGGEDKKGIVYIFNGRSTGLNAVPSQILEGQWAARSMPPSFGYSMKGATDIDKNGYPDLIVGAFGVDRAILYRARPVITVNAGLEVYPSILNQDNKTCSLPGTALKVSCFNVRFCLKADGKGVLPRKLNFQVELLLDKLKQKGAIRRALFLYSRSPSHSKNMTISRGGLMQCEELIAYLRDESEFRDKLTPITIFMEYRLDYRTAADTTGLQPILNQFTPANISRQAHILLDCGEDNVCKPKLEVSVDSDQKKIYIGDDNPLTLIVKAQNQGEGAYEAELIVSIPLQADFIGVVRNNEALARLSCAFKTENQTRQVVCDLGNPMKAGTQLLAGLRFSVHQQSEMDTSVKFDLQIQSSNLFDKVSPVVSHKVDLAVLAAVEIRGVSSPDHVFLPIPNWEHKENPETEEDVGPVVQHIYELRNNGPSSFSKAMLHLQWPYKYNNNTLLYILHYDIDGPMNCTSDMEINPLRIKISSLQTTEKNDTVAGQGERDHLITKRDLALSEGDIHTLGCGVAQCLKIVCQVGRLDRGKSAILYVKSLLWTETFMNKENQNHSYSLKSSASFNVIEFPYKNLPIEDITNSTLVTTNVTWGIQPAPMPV
Chain of αvβ6 (P18564 22-707 limits assumed): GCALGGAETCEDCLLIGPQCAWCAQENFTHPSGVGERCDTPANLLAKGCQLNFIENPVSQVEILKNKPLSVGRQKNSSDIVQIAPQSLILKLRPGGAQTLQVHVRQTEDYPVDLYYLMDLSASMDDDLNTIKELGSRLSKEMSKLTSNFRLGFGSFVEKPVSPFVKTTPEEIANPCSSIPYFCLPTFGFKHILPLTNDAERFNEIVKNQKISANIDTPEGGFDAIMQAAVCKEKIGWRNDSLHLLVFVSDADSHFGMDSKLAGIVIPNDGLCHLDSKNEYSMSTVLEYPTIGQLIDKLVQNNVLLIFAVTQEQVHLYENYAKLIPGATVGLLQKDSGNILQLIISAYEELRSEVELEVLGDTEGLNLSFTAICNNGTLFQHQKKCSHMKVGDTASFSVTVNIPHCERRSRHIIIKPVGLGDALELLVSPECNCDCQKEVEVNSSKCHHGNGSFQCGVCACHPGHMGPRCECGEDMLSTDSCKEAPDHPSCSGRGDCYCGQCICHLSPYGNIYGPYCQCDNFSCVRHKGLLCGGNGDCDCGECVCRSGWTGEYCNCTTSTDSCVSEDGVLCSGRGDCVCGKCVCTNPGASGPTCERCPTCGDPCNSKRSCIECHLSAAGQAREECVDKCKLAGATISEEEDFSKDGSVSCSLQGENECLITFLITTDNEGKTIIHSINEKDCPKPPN
Chain of αvβ1 (P06756 31-992 limits assumed): as the sequence (P06756 31-992 limits assumed) above
Chain of αvβ1 (P05556 21-728 limits assumed): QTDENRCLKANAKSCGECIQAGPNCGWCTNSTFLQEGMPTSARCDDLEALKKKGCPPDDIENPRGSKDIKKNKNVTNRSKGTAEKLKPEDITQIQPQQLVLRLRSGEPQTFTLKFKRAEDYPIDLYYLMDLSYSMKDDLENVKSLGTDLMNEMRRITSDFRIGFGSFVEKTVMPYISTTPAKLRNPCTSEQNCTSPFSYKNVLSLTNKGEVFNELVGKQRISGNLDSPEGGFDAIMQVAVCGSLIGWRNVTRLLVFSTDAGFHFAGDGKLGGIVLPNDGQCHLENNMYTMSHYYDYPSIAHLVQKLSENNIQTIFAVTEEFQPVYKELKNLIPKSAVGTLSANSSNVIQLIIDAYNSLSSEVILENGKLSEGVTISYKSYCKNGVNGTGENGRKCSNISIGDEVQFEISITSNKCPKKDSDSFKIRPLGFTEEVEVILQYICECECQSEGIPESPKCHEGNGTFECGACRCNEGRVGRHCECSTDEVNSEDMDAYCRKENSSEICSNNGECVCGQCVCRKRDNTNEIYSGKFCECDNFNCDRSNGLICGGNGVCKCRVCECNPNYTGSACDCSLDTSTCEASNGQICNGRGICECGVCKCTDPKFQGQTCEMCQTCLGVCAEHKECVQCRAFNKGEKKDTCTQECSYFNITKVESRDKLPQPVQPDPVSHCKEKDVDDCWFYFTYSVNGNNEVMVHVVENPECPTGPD

Structure (SMILES) | IC50 [1] [nM] | IC50 [2] [nM]
O=C(O)CC(CC(=O)N[C@H]1CCN(CCCCc2ccc3c(n2)NCCC3)C1)c1ccccc1 (stereo partly shown) [Compound 525] | < 100 | 100 to 1000
CC1(C)CN(c2cc([C@H](CO[C@@H]3CCCN(CCCc4ccc5c(n4)NCCC5)C3)CC(=O)O)ccc2Cl)CCO1 [Compound 648] | 100 to 1000 | 100 to 1000
O=C(O)C[C@H](O[C@@H]1CCCN(Cc2ccc3c(n2)NCCC3)C1)c1ccccc1 [Compound 392] | > 1000 | > 1000
O=C(N[C@H](CCO[C@@H]1CCCN(CCCc2ccc3c(n2)NCCC3)C1)C(=O)O)c1c(F)cc(N2CCOCC2)cc1F [Compound 512] | > 1000 | > 1000
O=C(O)C[C@@H](CO[C@@H]1CCCN(CCCc2ccc3c(n2)NCCC3)C1)c1cccc(-n2cccn2)c1 [Compound 515] | 100 to 1000 | < 100
O=C(O)C[C@@H](CO[C@@H]1CCCN(CCCc2ccc3c(n2)NCCC3)C1)c1ccccc1 [Compound 297-B, 3-phenyl-4-(((R)-1-(3-(5,6,7,8-tetrahydro-1,8-naphthyridin-2-yl)propyl)piperidin-3-yl)oxy)butanoic acid] | < 100 | < 100
O=C(N[C@H](CCO[C@@H]1CCCN(CCCc2ccc3c(n2)NCCC3)C1)C(=O)O)c1ccccc1 [Compound 479] | 100 to 1000 | 100 to 1000
Cc1c[s+]([O-])c2ncnc(N[C@@H](CCO[C@@H]3CCCN(CCCc4ccc5c(n4)NCCC5)C3)C(=O)O)c12 (stereo partly shown) [Compound 509] | < 100 | < 100
CC1(C)CCN(c2cccc([C@@H](CO[C@@H]3CCCN(CCCc4ccc5c(n4)NCCC5)C3)CC(=O)O)c2)CC1 [Compound 571] | < 100 | < 100
O=C(O)[C@@H](c1ccccc1)[C@@H](O)CO[C@@H]1CCCN(CCCc2ccc3c(n2)NCCC3)C1 [Compound 608] | > 1000 | > 1000
O=C(O)[C@H](CCO[C@@H]1CCCN(CCCCc2ccc3c(n2)NCCC3)C1)NC(=O)C12CCC(CC1)CC2 [Compound 399] | < 100 | < 100
C[C@H]1C[C@@H](C(=O)N[C@@H](CC(=O)O)c2ccccc2)CN(CCCc2ccc3c(n2)NCCC3)C1 [Compound 552] | 100 to 1000 | 100 to 1000
C[C@@H]1C[C@@H](C(=O)N[C@@H](CC(=O)O)c2ccccc2)CN(CCCc2ccc3c(n2)NCCC3)C1 [Compound 553] | 100 to 1000 | 100 to 1000
O=C(O)C[C@H](NC(=O)[C@]1(F)CCCN(CCCc2ccc3c(n2)NCCC3)C1)c1ccccc1 [Compound 555] | 100 to 1000 | 100 to 1000
O=C(O)[C@@H](CO[C@@H]1CCCN(CCCc2ccc3c(n2)NCCC3)C1)c1ccccc1 [Compound 352] | > 1000 | > 1000
CN(C[C@@H]1CCCN(CCCc2ccc3c(n2)NCCC3)C1)[C@@H](CC(=O)O)c1cccc(Br)c1 [Compound 532] | > 1000 | > 1000
O=C(O)[C@@H](CCO[C@@H]1CCCN(Cc2ccc3c(n2)NCCC3)C1)Nc1ncnc2ccccc12 [Compound 407] | > 1000 | > 1000
O=C(CC[C@@H](NC(=O)C12CCC(CC1)CC2)C(=O)O)N[C@@H]1CCN(C(=O)CCCc2ccc3c(n2)NCCC3)C1 [Compound 429] | > 1000 | > 1000
CC1(C)CN(c2cc([C@@H](CO[C@@H]3CCCN(CCCc4ccc5c(n4)NCCC5)C3)CC(=O)O)ccc2F)CCO1 [Compound 578] | < 100 | < 100
CC1(C)CN(c2cccc([C@H](CO[C@@H]3CCCN(CCCc4ccc5c(n4)NCCC5)C3)CC(=O)O)c2)CCC1(F)F [Compound 651] | < 100 | < 100
O=C(O)[C@@H](CCO[C@@H]1CCCN(Cc2ccc3c(n2)NCCC3)C1)NC(=O)C12CCC(CC1)CC2 [Compound 381] | < 100 | < 100

Now from value to compound:

IC50 [1] [nM] | IC50 [2] [nM] | Structure (SMILES)
< 100 | < 100 | O=C(NC[C@H](Nc1ncnc2ccsc12)C(=O)O)[C@@H]1CCCN(CCCc2ccc3c(n2)NCCC3)C1 [Compound 276, (2S)-3-[[(3R)-1-[3-(5,6,7,8-tetrahydro-1,8-naphthyridin-2-yl)propyl]piperidine-3-carbonyl]amino]-2-(thieno[3,2-d]pyrimidin-4-ylamino)propanoic acid]
100 to 1000 | 100 to 1000 | O=C(O)C[C@H](NC[C@@H]1CCCN(CCCc2ccc3c(n2)NCCC3)C1)c1cccc(C2CC2)c1 [Compound 529]
< 100 | < 100 | O=C(NC[C@H](C(=O)O)c1cccc(-c2ccncc2)c1)[C@@H]1CCCN(CCCc2ccc3c(n2)NCCC3)C1 [Compound 517]
< 100 | < 100 | O=C(N[C@@H](CNC(=O)[C@@H]1CCCN(CCCc2ccc3c(n2)NCCC3)C1)C(=O)O)c1c(F)cc(N2CCOC[C@@H]2C(F)(F)F)cc1F [Compound 359]
< 100 | < 100 | Cc1cc(C)n(-c2cccc([C@H](CC(=O)O)NC(=O)[C@@H]3CCCN(CCCc4ccc5c(n4)NCCC5)C3)c2)c1 [Compound 586]
100 to 1000 | > 1000 | O=C(NC[C@@H](C(=O)O)c1cccc2cnn([C@@H]3CCOC3)c12)[C@@H]1CCCN(CCCc2ccc3c(n2)NCCC3)C1 [Compound 322]
< 100 | < 100 | O=C(NC[C@H](C(=O)O)c1cnc2[nH]ccc2c1)[C@@H]1CCCN(CCCc2ccc3c(n2)NCCC3)C1 [Compound 325]
< 100 | < 100 | O=C(N[C@@H](CNC(=O)[C@@H]1CCCN(CCCc2ccc3c(n2)NCCC3)C1)C(=O)O)c1ccc(C2CC2)cc1 [Compound 369]
< 100 | < 100 | O=C(O)C[C@@H](NC(=O)[C@@H]1CCCN(CCCc2ccc3c(n2)NCCC3)C1)c1cccc(OC2COC2)c1 [Compound 412]
< 100 | < 100 | O=C(O)C[C@H](NC(=O)[C@@H]1CCCN(CCCc2ccc3c(n2)NCCC3)C1)c1cnc2ccccc2n1 [Compound 539]
> 1000 | > 1000 | O=C(O)C[C@H](OC[C@@H]1CCCN(CCCc2ccc3c(n2)NCCC3)C1)c1cccc(C2CC2)c1 [Compound 528]
< 100 | < 100 | O=C(NC[C@@H](Nc1ccc(-c2ccccc2)nc1)C(=O)O)[C@@H]1CCCN(CCCc2ccc3c(n2)NCCC3)C1 [Compound 375]
< 100 | 100 to 1000 | O=C(NC[C@H](C(=O)O)c1cccc2cnn([C@H]3CCOC3)c12)[C@@H]1CCCN(CCCc2ccc3c(n2)NCCC3)C1 [Compound 321]
< 100 | < 100 | COc1ccc([C@H](CC(=O)O)NC(=O)[C@@H]2CCCN(CCCc3ccc4c(n3)NCCC4)C2)cn1 [Compound 221, (S)-3-(6-methoxypyridin-3-yl)-3-((R)-1-(3-(5,6,7,8-tetrahydro-1,8-naphthyridin-2-yl)propyl)piperidine-3-carboxamido)propanoic acid hydrochloride]
< 100 | < 100 | O=C(N[C@@H](CNC(=O)[C@@H]1CCCN(CCCc2ccc3c(n2)NCCC3)C1)C(=O)O)C1CCOCC1 [Compound 311]
< 100 | < 100 | O=C(NC[C@@H](C(=O)O)c1cccc2n[nH]cc12)[C@@H]1CCCN(CCCc2ccc3c(n2)NCCC3)C1 [Compound 319]
< 100 | < 100 | O=C(NC1CCCCC1)N[C@@H](CNC(=O)[C@@H]1CCCN(CCCc2ccc3c(n2)NCCC3)C1)C(=O)O [Compound 284, (S)-2-(3-cyclohexylureido)-3-((R)-1-(3-(5,6,7,8-tetrahydro-1,8-naphthyridin-2-yl)propyl)piperidine-3-carboxamido)propanoic acid]
< 100 | < 100 | O=C(O)C[C@H](NC(=O)[C@@H]1CCCN(CCCc2ccc3c(n2)NCCC3)C1)c1ccccc1 [Compound 202, (S)-3-phenyl-3-((R)-1-(3-(5,6,7,8-tetrahydro-1,8-naphthyridin-2-yl)propyl)piperidine-3-carboxamido)propanoic acid hydrochloride]
< 100 | < 100 | O=C(O)C[C@H](NC(=O)[C@@H]1CCCN(CCCc2ccc3c(n2)NCCC3)C1)c1ccc2nccnc2c1 [Compound 215-A, 3-(quinoxalin-6-yl)-3-((R)-1-(3-(5,6,7,8-tetrahydro-1,8-naphthyridin-2-yl)propyl)piperidine-3-carboxamido)propanoic acid]
< 100 | < 100 | CC1(C)CCCN(c2cccc([C@@H](CNC(=O)[C@@H]3CCCN(CCCc4ccc5c(n4)NCCC5)C3)C(=O)O)c2)C1 [Compound 599]

— US20240208968A1, “ALPHA V BETA 6 AND ALPHA V BETA 1 INTEGRIN INHIBITORS AND USES THEREOF” (DiCE Molecules SV, Inc., priority 2021, published 2024)
